What all share (assay type): biochemical
The target of assay [1] is T1, Zea mays EPSPS variant Zm-A189T (Zea mays, UniProt O24566, A188T).
T1 sequence (O24566 with tags, fused parts or gaps A188T): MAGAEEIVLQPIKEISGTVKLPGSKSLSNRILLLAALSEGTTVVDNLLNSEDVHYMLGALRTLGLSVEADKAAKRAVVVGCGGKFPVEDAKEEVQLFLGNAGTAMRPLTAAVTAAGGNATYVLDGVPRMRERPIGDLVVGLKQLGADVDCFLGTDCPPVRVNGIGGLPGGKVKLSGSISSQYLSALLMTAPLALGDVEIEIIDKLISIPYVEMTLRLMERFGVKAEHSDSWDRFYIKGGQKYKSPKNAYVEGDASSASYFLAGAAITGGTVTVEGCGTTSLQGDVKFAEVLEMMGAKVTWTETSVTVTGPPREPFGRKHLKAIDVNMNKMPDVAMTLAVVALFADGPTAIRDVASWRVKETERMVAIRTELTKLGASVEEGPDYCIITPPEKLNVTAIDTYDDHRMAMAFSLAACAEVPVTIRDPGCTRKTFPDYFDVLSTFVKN
Nature of the assay: Rapid two-rate method for (kcat/KM)*KI, Zm-A189T. The conditions noted are these: [E] 0.07 uM, [Gly] 1000 uM. From the text: There are several practical considerations for accurately estimating (kcat/KM)*KI with the rapid method. […] 2) The inhibitor concentration must be adjusted so as to obtain a degree of inhibition that minimally amplifies the error in the term v0-vi in Equation 3. If inhibition is too little, v0-vi will be small, and the error in the multiplier vi×v0/(v0-vi) will be large. […] 3) Substrate concentration should be set at the approximate KM of the parental variant(s), subject to the sensitivity of the assay. High substrate concentration obscures sensitivity to the inhibitor and reduces stringency for capturing improvements in KM. Depending on the necessity for speed, there exists opportunity for customizing enzyme and inhibitor concentrations. […] The rapid method was repeated for those and obtained data that correlated better with data obtained by substrate saturation analysis. For screening purposes however, that correlation step is not necessary. Conditions can be set so that variants with a pre-determined minimal fitness level are accurately quantified.
In Table 15, parameters above the heavy line for the rapid method were obtained under standard conditions. For variants shown below the heavy line, the rapid analysis was repeated with enzyme or glyphosate concentrations adjusted as needed to generate sufficient signal within the limits for linear initial rates.

In assay [2] the target is T2, Zea mays EPSPS variant Zm-H6 (868-H6) with A69V (H6-A69V) (Zea mays, UniProt O24566, A1R/A3W/A415G/A68V/A71Q/D401G/E301S/E390G/G101A/I207L/K83R/L97C/T278A/T360S/T440Q/V437R).
T2 sequence (O24566 with tags, fused parts or gaps A1R/A3W/A68V/A71Q/K83R/L97C/G101A/I207L/T278A/E301S/T360S/E390G/D401G/A415G/V437R/T440Q): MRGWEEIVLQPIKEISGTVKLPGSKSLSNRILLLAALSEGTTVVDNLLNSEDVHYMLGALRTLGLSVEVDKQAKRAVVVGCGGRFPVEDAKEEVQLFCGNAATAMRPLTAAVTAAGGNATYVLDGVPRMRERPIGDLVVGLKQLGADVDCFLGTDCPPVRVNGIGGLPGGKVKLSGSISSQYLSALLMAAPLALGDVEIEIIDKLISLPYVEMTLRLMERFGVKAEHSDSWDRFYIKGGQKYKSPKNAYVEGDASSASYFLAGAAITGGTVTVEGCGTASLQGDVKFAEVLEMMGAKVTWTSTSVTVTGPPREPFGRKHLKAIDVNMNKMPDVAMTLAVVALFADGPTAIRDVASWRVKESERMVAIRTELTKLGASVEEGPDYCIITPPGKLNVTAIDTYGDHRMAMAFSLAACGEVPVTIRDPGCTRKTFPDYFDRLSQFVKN
Nature of the assay: Substrate saturation kinetic analysis with glyphosate, H6-A69V.

The target in assay [3] is Zea mays EPSPS variant 123-C1 (A2R, A4W, K84R, L98C, G102A, I208L, K243E, E391P, D402G), SEQ ID NO:6 (Zea mays, UniProt O24566, A1R/A3W/D401G/E390P/G101A/I207L/K242E/K83R/L97C). Nature of the assay: EPSPS substrate saturation kinetics, 123-C1. The method, then:
EPSPS activity was determined by quantifying the phosphate generated from the EPSPS reaction. Release of inorganic phosphate was coupled to reaction with 2-amino-6-mercapto-7-methylpurine ribonucleoside, catalyzed by purine-nucleoside phosphorylase (M R Webb, Proc. Natl. Acad. Sci. 89:4884-4887, 1992). The absorbance change that occurs was monitored at 360 nm, where the extinction is 11,200 M^−1 cm^−1, with a Spectramax plate reader (Molecular Devices). To determine kinetic parameters, the varied substrate was present at seven concentrations (the eighth being the blank, containing no substrate) ranging from 4 to 400 uM and the unvaried substrate present at saturation. […] Reactions were monitored with a Spectramax plate reader. […] KI was then calculated from the following form of the Michaelis-Menten equation for competitive inhibition: KI=KM[I]/(KM app−KM) KM approximates the dissociation constant of the enzyme-substrate complex while kcat is the rate of conversion of substrate to product when the substrate concentration is saturating. kcat/KM is a widely accepted parameter for catalytic efficiency when substrate concentration is low (˜KM). […] The parameter kcat/KM×KI is used to quantify both catalytic efficiency and insensitivity and thus the overall fitness of the enzyme. […]

The target in assay [4] is Zea mays EPSPS variant 4R (Zea mays, UniProt O24566, A3R). Nature of the assay: EPSPS reaction rate with or without 10 uM glyphosate, 4R. Further: 50 µM PEP and S3P. The conditions noted are these: pH 7; read-out: Reaction rate with 10 μM glyph, % no glyph.
Chain of Zea mays EPSPS variant 4R (O24566 entry or part of it A3R): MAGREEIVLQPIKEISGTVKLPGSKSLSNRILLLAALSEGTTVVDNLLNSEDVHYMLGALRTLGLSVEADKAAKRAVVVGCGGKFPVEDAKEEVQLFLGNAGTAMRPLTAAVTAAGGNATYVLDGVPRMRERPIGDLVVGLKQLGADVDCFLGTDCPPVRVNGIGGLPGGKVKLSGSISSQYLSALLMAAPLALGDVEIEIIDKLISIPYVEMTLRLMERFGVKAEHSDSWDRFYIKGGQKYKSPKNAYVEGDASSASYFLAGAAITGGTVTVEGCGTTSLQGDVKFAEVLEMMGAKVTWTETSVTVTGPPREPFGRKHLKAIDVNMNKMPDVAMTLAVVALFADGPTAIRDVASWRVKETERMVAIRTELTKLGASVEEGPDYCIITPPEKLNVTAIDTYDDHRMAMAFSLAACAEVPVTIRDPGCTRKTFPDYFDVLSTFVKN

Chain of Zea mays EPSPS variant 123-C1 (A2R, A4W, K84R, L98C, G102A, I208L, K243E, E391P, D402G), SEQ ID NO:6 (O24566 entry or part of it A1R/A3W/K83R/L97C/G101A/I207L/K242E/E390P/D401G): as the sequence (O24566 entry or part of it A3R) above, with A2R, R4W, K84R, L98C, G102A, I208L, K243E, E391P, D402G counted along it

In general, Ki refers to a measure of affinity in units of concentration, obtained from inhibition or displacement. `O=C(O)CNCP(=O)(O)O` [glyphosate, N-phosphonomethylglycine]: the “(kcat/KM)*KI” value stood at 431 in assay [1]; 2440 in assay [2] (substrate saturation, H6-A69V); 10100 in assay [3] (PEP as substrate, glyphosate as inhibitor). The inhibition constant Ki in assay [2] is 320 µM; in assay [3], 559 µM. In addition, the activity at 10 µM in assay [4] was determined as 7.38%.

The values are drawn from patent US11549123B2, “Plant EPSP synthases and methods of use” (PIONEER HI-BRED INTERNATIONAL, INC., priority 2015, dated 2023).
